According to US20110046191A1, “COMBINATION OF A MUSCARINIC RECEPTOR ANTAGONIST AND A BETA-2-ADRENOCEPTOR AGONIST” (ARGENTA DISCOVERY LTD., priority 2007, published 2011):
Like-named read-outs stand apart in the source and are kept apart here. Blank lines part the entries; values can stand above or below the compound they belong to.

What was measured:
[1] = tested on: isolated guinea-pig tracheal rings precontracted with methacholine; test: Isolated tracheal rings from guinea-pig preconstricted with methacholine; type: cell-based; conditions: for inhibition at 0.001 µM: Cavia porcellus, read-out: % inhibition of 1 μM Methacholine induced tone; for % inhibition of 1 μM Methacholine induced tone: Formoterol 1 nM, Compound A or B 10 nM
Experimental: Evaluation of Compound Activity on Isolated Tracheal Rings from Guinea-Pig Preconstricted with Methacholine. […] Male albino Dunkin Hartley guinea-pigs (300-350 g) were killed by cervical dislocation and the trachea excised. Adherent connective tissue was removed and the trachea cut into ring segments (2-3 mm wide). These were suspended in 10 mL organ baths containing a modified Krebs solution composition (mM): NaCl 117.56, KCl 5.36, NaH2PO4 1.15, MgSO4 1.18, glucose 11.10, NaHCO3 25.00 and CaCl2 2.55. […] The tracheal rings were suspended between two stainless steel hooks, one attached to an isometric force transducer and the other to a stationary support in the organ bath. Changes in isometric force were recorded. Acetyl-β-methylcholine chloride (Methacholine), Indomethacin, Corticosterone-21-acetate, Phentolamine hydrochloride, Ascorbic acid, CGP20712A methanesulphate were obtained from the Sigma Chemical Company. […] At the beginning of each experiment a force of 1.0 g·wt. was applied to the tissues and this was reinstated over a 30 min equilibration period until it remained steady. […] Tissues were washed by exchanging the bathing Krebs solution three times. […] Data were collected using the ADInstruments Chart5 for windows software, the tension generated was measured before addition of methacholine and after its response had reached plateau. […] All responses were expressed as percentage inhibition of the methacholine-induced contraction. The results are depicted in FIG. 6 and Table 2, wherein compound A is (MA2). […] Tissues were washed by exchanging the bathing Krebs solution three times. […] Data were collected using the ADInstruments Chart5 for windows software, the tension generated was measured before addition of methacholine and after its response had reached plateau. […] All responses were expressed as percentage inhibition of the methacholine-induced contraction. The results are depicted in FIG. 7 and Table 3, wherein compound B is (MA11).

[2] = molecular target: T1, human muscarinic receptors (M3) (Homo sapiens, UniProt P20309); test: Muscarinic Receptor Radioligand Binding Assay ([3H]-NMS); conditions: membranes expressing human M3
T1 construct: purchased
Experimental: The inhibitory effects of compounds of the muscarinic antagonists were determined by a Muscarinic Receptor Radioligand Binding Assay.
Radioligand binding studies utilising [^3H]-N-methyl scopolamine ([^3H]-NMS) and commercially available cell membranes expressing the human muscarinic receptors (M2 or M3) were used to assess the affinity of muscarinic antagonists for M2 and M3 receptors. Membranes in TRIS buffer were incubated in 96-well plates with [^3H]-NMS and M3 antagonist at various concentrations for 3 hours. Membranes and bound radioligand were then harvested by filtration and allowed to dry overnight. Scintillation fluid was then added and the bound radioligand counted using a Canberra Packard Topcount scintillation counter

[3] = Gravimetric vapour sorption (GVS); type: physicochemical; conditions: at 80% RH, ambient temperature
Experimental: GVS profiles were measured using a Dynamic Vapour Sorption DVS-1 instrument. The solid sample ca. 1-5 mg was placed into a glass vessel and the weight of the sample was recorded during a dual cycle step method (40 to 90 to 0 to 90 to 0% relative humidity (RH), in steps of 10% RH). GVS profiles were recorded at ambient temperature.

[4] = tested on: Methacholine-induced bronchoconstriction in the guinea pig; test: Lung function in anaesthetised guinea pigs: methacholine-induced bronchoconstriction; type: in vivo; conditions: after 5 μg/kg methacholine i.v.
Experimental: Evaluation of Lung Function in Anaesthetised Guinea Pigs.
Male Dunkin-Hartley guinea pigs (300-600 g) were weighed and dosed with vehicle (0.05M phosphate, 0.1% Tween 80, 0.6% saline, pH 6) or compound via the intratracheal route under recoverable gaseous anaesthesia (5% halothane in oxygen). Animals were dosed with compound or vehicle two hours prior to the administration of methacholine. Guinea pigs were anaesthetised with pentobarbitone (1 mL/kg of 60 mg/mL solution i.p.) approximately 30 minutes prior to the first bronchoconstrictor administration. The trachea was cannulated and the animal ventilated using a constant volume respiratory pump (Harvard Rodent Ventilator model 683) at a rate of 60 breath/min and a tidal volume of 5 mL/kg. A jugular vein was cannulated for the administration of methacholine or maintenance anaesthetic (0.1 mL of pentobarbitone solution, 60 mg/mL, as required).
The animals were transferred to a Flexivent System (SCIREQ, Montreal, Canada) in order to measure airway resistance. The animals were ventilated (quasi-sinusoidal ventilation pattern) at 60 breaths/min at a tidal volume of 5 mL/kg. A positive end expiratory pressure of 2-3 cm H2O was applied. Respiratory resistance was measured using the Flexivent “snapshot” facility (1 second duration, 1 Hz frequency). Once a stable baseline resistance value had been obtained the animals were given methacholine in ascending doses (0.5, 1, 2, 3 and 5 μg/kg, i.v) at approximately 4-minute intervals via the jugular catheter. After each administration of bronchoconstrictor the peak resistance value was recorded. Guinea pigs were euthanised with approximately 1.0 mL pentobarbitone sodium (Euthatal) intravenously after the completion of the lung function measurements.
Percentage bronchoprotection produced by a compound was calculated at each dose of brochoconstrictor as follows:
Where % change Rveh is the mean of the maximum percentage change in airway resistance in the vehicle treated group. The results reported were measured after 5 μg/kg methacholine and were expressed as percentage bronchoprotection (mean±s.e.mean).
Guinea pigs were dosed with vehicle, 3 and 27 μg/kg compound (BA1), 0.2 μg/kg compound (MA2) (Crystalline Form A) or a combination of 3 μg/kg Compound (BA1) and 0.2 μg/kg Compound (MA2) via the intratracheal route. Administration of increasing intravenous doses of methacholine (0.5, 1, 2, 3 and 5 μg/kg) evoked dose-related bronchoconstriction in the vehicle treated animals ranging from 13±2.6% at 0.5 μg/kg to 2530±280% at 5 μg/kg two hours after vehicle administration (n=9).
[…] Administration of increasing intravenous doses of methacholine (0.5, 1, 2, 3 and 5 μg/kg) evoked dose-related bronchoconstriction in the vehicle treated animals ranging from 14±2.6% at 0.5 μg/kg to 2240±269% at 5 μg/kg two hours after vehicle administration (n=10).

[5] = MA2 0.2 μg/kg intratracheal, 2 hours prior to methacholine
[6] = MA11 at 0.2 μg/kg intratracheal

T1 sequence (P20309 whole entry): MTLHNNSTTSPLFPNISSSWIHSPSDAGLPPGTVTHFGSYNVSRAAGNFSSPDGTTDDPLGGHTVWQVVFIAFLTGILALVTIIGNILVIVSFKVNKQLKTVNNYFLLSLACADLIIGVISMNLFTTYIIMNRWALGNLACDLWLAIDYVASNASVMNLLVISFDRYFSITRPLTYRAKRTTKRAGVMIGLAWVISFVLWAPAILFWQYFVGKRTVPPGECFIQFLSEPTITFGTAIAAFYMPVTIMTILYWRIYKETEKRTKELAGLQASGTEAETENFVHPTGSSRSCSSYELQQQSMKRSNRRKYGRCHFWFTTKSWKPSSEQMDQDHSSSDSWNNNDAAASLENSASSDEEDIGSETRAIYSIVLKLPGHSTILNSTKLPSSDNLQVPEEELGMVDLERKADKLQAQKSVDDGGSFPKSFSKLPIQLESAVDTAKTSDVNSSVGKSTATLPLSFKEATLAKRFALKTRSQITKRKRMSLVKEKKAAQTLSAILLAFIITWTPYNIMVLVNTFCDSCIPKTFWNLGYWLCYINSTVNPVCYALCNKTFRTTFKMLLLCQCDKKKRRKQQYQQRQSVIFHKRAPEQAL

SMILES: COc1ccc(CC(C)NCC(O)c2ccc(O)c(NC=O)c2)cc1 (centres unmarked) [Formoterol, N-[2-hydroxy-5-[(1)-1-hydroxy-2-[[(1)-2-(4-methoxyphenyl)-1-methylethyl]amino]ethyl]phenyl]-formamide, reference compound]
inhibition at 0.001 µM ([1]; 10 min): 21%
inhibition at 0.001 µM ([1]; 20 min): 37%
inhibition at 0.001 µM ([1]; 0.5 h): 41%
inhibition at 0.001 µM ([1]; 40 min): 42%
inhibition at 0.001 µM ([1]; 50 min): 44%

SMILES: C[N+](C)(CCCOc1ccccc1)Cc1cnc([C@](O)(c2ccccc2)C2CCCCC2)o1.[Br-] [MA2 Crystalline Form A, [2-((R)-Cyclohexyl-hydroxy-phenyl-methyl)-oxazol-5-ylmethyl]-dimethyl-(3-phenoxy-propyl)-ammonium bromide]
GVS weight increase [3]: 0.8 % w/w

SMILES: C[N+](C)(CCCOc1ccccc1)Cc1cnc([C@](O)(c2ccccc2)C2CCCCC2)o1 [MA7 Form 1, [2-((R)-Cyclohexyl-hydroxy-phenyl-methyl)-oxazol-5-ylmethyl]-dimethyl-(3-phenoxy-propyl)-ammonium hemi-naphthalene-1,5-disulfonate]
GVS weight increase [3]: 3.1 % w/w

SMILES: C[N+](C)(CCCOc1ccccc1)Cc1cnc([C@](O)(c2ccccc2)C2CCCCC2)o1 [MA7 Form 2, [2-((R)-Cyclohexyl-hydroxy-phenyl-methyl)-oxazol-5-ylmethyl]-dimethyl-(3-phenoxy-propyl)-ammonium hemi-naphthalene-1,5-disulfonate]
GVS weight increase [3]: 0.7 % w/w

SMILES: C[N+](C)(CCCOc1ccccc1)Cc1cnc([C@](O)(c2ccccc2)C2CCCCC2)o1 [MA7 Form 3, [2-((R)-Cyclohexyl-hydroxy-phenyl-methyl)-oxazol-5-ylmethyl]-dimethyl-(3-phenoxy-propyl)-ammonium hemi-naphthalene-1,5-disulfonate]
GVS weight increase [3]: 3.0 % w/w

SMILES: C[N+](C)(CCOCc1ccc(Cl)cc1)Cc1cnc([C@](O)(c2ccccc2)C2CCCCC2)o1 [MA11, [2-(4-chloro-benzyloxy)-ethyl]-[2-((R)-cyclohexyl-hydroxy-phenyl-methyl)-oxazol-5-ylmethyl]-dimethyl-ammonium hemi-naphthalene-1,5-disulfonate]
increase in resistance [4, 6]: 1880±272%
inhibition of methacholine-induced bronchoconstriction [4, 6]: 16%
% inhibition of 1 μM Methacholine induced tone ([1]; 10 min): 11%
% inhibition of 1 μM Methacholine induced tone ([1]; 20 min): 29%
% inhibition of 1 μM Methacholine induced tone ([1]; 30 min): 49%
% inhibition of 1 μM Methacholine induced tone ([1]; 40 min): 67%
% inhibition of 1 μM Methacholine induced tone ([1]; 50 min): 84%

Further lines, with some results ahead:

Ki [2]: 9.4 nM
SMILES: C[N+](C)(CCCOc1ccccc1)Cc1cnc([C@@](O)(c2ccccc2)C2CCCCC2)o1 [MA1, [2-((S)-Cyclohexyl-hydroxy-phenyl-methyl)-oxazol-5-ylmethyl]-dimethyl-(3-phenoxy-propyl)-ammonium bromide]

Ki [2]: 0.2 nM
SMILES: C[N+](C)(CCCOc1ccccc1)Cc1cnc([C@](O)(c2ccccc2)C2CCCCC2)o1.[Br-] [MA2, [2-((R)-Cyclohexyl-hydroxy-phenyl-methyl)-oxazol-5-ylmethyl]-dimethyl-(3-phenoxy-propyl)-ammonium bromide]
increase in resistance [4, 5]: 2210±268%
inhibition of methacholine-induced bronchoconstriction [4, 5]: 13%
% inhibition of 1 μM Methacholine induced tone ([1]; 10 min): 23%
% inhibition of 1 μM Methacholine induced tone ([1]; 20 min): 62%
% inhibition of 1 μM Methacholine induced tone ([1]; 30 min): 94%
% inhibition of 1 μM Methacholine induced tone ([1]; 40 min): 104%
% inhibition of 1 μM Methacholine induced tone ([1]; 50 min): 106%

Ki [2]: 0.6 nM
SMILES: C[N+](C)(CCOCCc1ccccc1)Cc1cnc([C@](O)(c2ccccc2)C2CCCCC2)o1 [MA3, [2-((R)-Cyclohexyl-hydroxy-phenyl-methyl)-oxazol-5-ylmethyl]-dimethyl-(2-phenethyloxy-ethyl)-ammonium bromide]

Ki [2]: 0.9 nM
SMILES: C[N+](C)(CCCOc1ccc(Cl)c(Cl)c1)Cc1cnc([C@](O)(c2ccccc2)C2CCCCC2)o1 [MA4, [2-((R)-Cyclohexyl-hydroxy-phenyl-methyl)-oxazol-5-ylmethyl]-[3-(3,4-dichloro-phenoxy)-propyl]-dimethyl-ammonium bromide]

Ki [2]: 2.1 nM
SMILES: C[N+](C)(CCOCc1ccc(Cl)c(Cl)c1)Cc1cnc([C@](O)(c2ccccc2)C2CCCCC2)o1 [MA5, [2-((R)-Cyclohexyl-hydroxy-phenyl-methyl)-oxazol-5-ylmethyl]-[2-(3,4-dichloro-benzyloxy)-ethyl]-dimethyl-ammonium bromide]

Ki [2]: 0.6 nM
SMILES: C[N+](C)(CCOCc1ccc(Cl)cc1)Cc1cnc([C@](O)(c2ccccc2)C2CCCCC2)o1 [MA6, [2-(4-chloro-benzyloxy)-ethyl]-[2-((R)-cyclohexyl-hydroxy-phenyl-methyl)-oxazol-5-ylmethyl]-dimethyl-ammonium bromide]
